Two compounds from patent publication US10336746B1, “RAD51 inhibitors” (Cyteir Therapeutics, Inc., priority 2017, dated 2019) can be followed below.

In one data set the test system is TOV-1120D (Ovary). Description: Cell line screen, TOV-1120D. It is filed as cell-based. As to conditions: AICDA Expression Negative. The protocol: (§1) The activity of the claimed compounds was measured in a variety of cell lines with different expression levels of activation induced cytidine deaminase (AICDA). The potency assay was repeated in all of the listed cell lines and the EC50 values recorded.

Data set [1] relates to Daudi cell line (AID positive). Description: Primary screening cell killing assay, Daudi cell line (AID positive). It is filed as cell-based. The following applies: Homo sapiens, 168 h, cell death on Day 7, Cell-Titer Glo. In a few lines: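 AID-positive Daudi cells, 1250 per well, were exposed to serially diluted compounds for 7 days at 37° C. Viability read by CellTiter-Glo luminescence; percent cell death and EC50 derived against untreated wells after media-blank subtraction.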

A further data set relates to Daudi (Lymphoma). Description: Cell line screen, Daudi. The following applies: Homo sapiens, AICDA Expression High. It is filed as cell-based. The protocol:
as §1

Another data set concerns U-698-M (Lymphoma). Description: Cell line screen, U-698-M. It is filed as cell-based. The following applies: AICDA Expression High. The protocol:
as §1

Data set [2] concerns ARPE19/HPV16 (HPV Immortalized RPE). Description: Cell line screen, ARPE19/HPV16. The data set is classed as cell-based. As to conditions: ARPE-19, AICDA Expression Negative. The protocol: as §1
In another data set the test system is SNU-1 (Gastric). As to the kind of experiment: Cell line screen, SNU-1. The data set is classed as cell-based. As to conditions: Homo sapiens, SNU1, AICDA Expression Negative. As for the experimental part:
as §1

The next data set deals with CCRF-SB (Leukemia). As to the kind of experiment: Cell line screen, CCRF-SB. It is filed as cell-based. As to conditions: Homo sapiens, AICDA Expression High. The protocol: as §1
Data set [3] can be described thus: Bi-directional Caco-2 permeability. It is filed as in vitro ADME. The following applies: human; for efflux ratio at 90 min: Caco-2, read-out: BA/AB Ratio; for Papp A→B at 90 min: Caco-2, apical to basolateral, read-out: AB Papp (cm/sec × 10^6); for Papp A→B at 90 min / Papp B→A at 90 min: 37 C, up to 90 minutes; for Papp B→A at 90 min: Caco-2, basolateral to apical, read-out: BA Papp (cm/sec × 10^6). The protocol:
Bi-directional Caco-2 permeability was assayed. Caco-2 cells were seeded onto permeable polycarbonate supports and allowed to differentiate for about 3 weeks prior to being used in the assays. The cells were then exposed to the compounds from either the apical or basolateral sides and incubated at 37 C for up to 90 minutes under light agitation. Compound transport was then measured using LC/MS/MS analysis at 30, 60, and 90 minutes.

A further data set concerns WSU-FSCCL (Lymphoma). Description: Cell line screen, WSU-FSCCL. It is filed as cell-based. The following applies: AICDA Expression Negative. The protocol:
as §1

The subject of the next data set is SNU-5 (Gastric). Description: Cell line screen, SNU-5. The data set is classed as cell-based. As to conditions: Homo sapiens, AICDA Expression Low. As for the experimental part: as §1
The next data set relates to KG-1 (Leukemia). Description: Cell line screen, KG-1. It is filed as cell-based. As to conditions: AICDA Expression Negative. As for the experimental part: as §1
A further data set deals with KYSE-510 (Head and Neck). As to the kind of experiment: Cell line screen, KYSE-510. As to conditions: Homo sapiens, AICDA Expression Negative. It is filed as cell-based. The protocol: as §1
The subject of another data set is OV56 (Ovary). As to the kind of experiment: Cell line screen, OV56. As to conditions: AICDA Expression Low. It is filed as cell-based. As for the experimental part: as §1
The test system of a further data set is KYSE-70 (Head and Neck). As to the kind of experiment: Cell line screen, KYSE-70. It is filed as cell-based. The following applies: Homo sapiens, AICDA Expression Low. The protocol:
as §1

Data set [4] in a line: Pharmacokinetic (PK) study, plasma by LC-MS. The data set is classed as in vivo, Rat. The following applies: po @ 80 mg/kg (30% PEG400, 10% Vitamin E TPGS in water); for half-life: plasma. As for the experimental part: PK studies in mice were used to determine the fate of the compounds in a whole organism. Rats were treated with the compounds either orally of via IV at the indicated doses and followed for up to 24 hours. Plasma samples were taken at different time points and analyzed by LC-MS.

Data set [5] relates to WI-38 (Normal Human Lung Fibroblast). As to the kind of experiment: Cell line screen, WI-38. The data set is classed as cell-based. As to conditions: AICDA Expression Negative. The protocol: as §1
The mark [6] stands for this setting: Caco-2, Caco-2, AB direction, read-out: AB Recovery %.
[7] abbreviates: Caco-2, Caco-2, BA direction, read-out: BA Recovery %.

SMILES strings stand for the structures. Like-named read-outs stand apart in the source and are kept apart here. Some results are limits rather than exact numbers.

Consider `CC(C)OC(=O)N[C@H]1CC[C@H](c2ncc(-c3ccc(NC(=O)NCc4ccccc4)cc3S(=O)(=O)NC(C)(C)C)s2)CC1` [Ex. 66A, trans-isopropyl N-[4-[5-[4-(benzylcarbamoylamino)-2-(tert-butylsulfamoyl)phenyl]thiazol-2-yl]cyclohexyl]carbamate], for which the EC50 in the data set with TOV-1120D (Ovary) is 2380 nM; in [1], at most 100 nM; in the data set on Daudi (Lymphoma) it was 18 nM; in the data set with U-698-M (Lymphoma) it was 88 nM; in data set [2], over 10000 nM; in the data set with SNU-1 (Gastric) it was 609 nM. Besides, the EC50 in the data set on CCRF-SB (Leukemia) was 183 nM; with WSU-FSCCL (Lymphoma), 25 nM; in the data set on SNU-5 (Gastric), 2940 nM; with KG-1 (Leukemia), 3070 nM; with KYSE-510 (Head and Neck), 4520 nM; in the data set with OV56 (Ovary), 5940 nM. Also, the EC50 in the data set with KYSE-70 (Head and Neck) was 2640 nM; in [5], over 10000 nM. Also, the recovery at 90 min in data set [3] (setting [6]) amounted to 64.9%; in data set [3] (setting [7]) it was 81.2%. In addition, the efflux ratio at 90 min in data set [3] turned out to be 1.4. Further, the Papp A→B at 90 min in [3] was determined as 2.9 ×10⁻⁶ cm/s. Also, in [3], the Papp B→A at 90 min came out at 3.9 ×10⁻⁶ cm/s. Further, the “F (%) @ 5 mg/kg” value is reported as 3.31% in data set [4] (Rat Female) and 2.55% in data set [4] (Rat Male). Besides, the half-life was 2.59 h in data set [4] (Rat Female) and 1.86 h in data set [4] (Rat Male).
For `CC(C)OC(=O)Nc1ccc(-c2cnc([C@H]3CC[C@H](NC(=O)OC(C)C)CC3)s2)c(S(=O)(=O)NC(C)(C)C)c1` [Ex. 67A, trans-isopropyl N-[3-(tert-butylsulfamoyl)-4-[2-[4-(isopropoxycarbonylamino)cyclohexyl]thiazol-5-yl]phenyl]carbamate], the EC50 in the data set with TOV-1120D (Ovary) is 4920 nM; in data set [1] it was 100 to 1000 nM; in the data set with Daudi (Lymphoma), 311 nM; in the data set with U-698-M (Lymphoma) it was 791 nM; in data set [2] it was over 10000 nM; with SNU-1 (Gastric) it was 2930 nM. In addition, the EC50 in the data set on CCRF-SB (Leukemia) came to 932 nM; in the data set with WSU-FSCCL (Lymphoma), 344 nM; in the data set with SNU-5 (Gastric) it was 3840 nM; in the data set with KG-1 (Leukemia), 3000 nM; with KYSE-510 (Head and Neck) it was 3400 nM; in the data set on OV56 (Ovary), 7230 nM. In addition, the EC50 is 2630 nM in the data set with KYSE-70 (Head and Neck); over 10000 nM in data set [5]. In addition, the recovery at 90 min is 50.7% in data set [3] (setting [6]) and 78.6% in data set [3] (setting [7]). In addition, in data set [3], the efflux ratio at 90 min amounted to 0.7. Further, the Papp A→B at 90 min in data set [3] worked out at 10.5 ×10⁻⁶ cm/s. Further, the Papp B→A at 90 min in data set [3] is 6.9 ×10⁻⁶ cm/s. For the same compound, the “F (%) @ 5 mg/kg” value was determined as 86.5% in data set [4] (Rat Female) and 46.9% in [4] (Rat Male). In addition, the half-life in [4] (Rat Female) was 11.5 h; in data set [4] (Rat Male) it was 6.46 h.
